Data on one molecule can be found in patent US20220119777A1, “CHEMILUMINESCENCE PHOTODYNAMIC VIRUS INACTIVATION OF RED BLOOD CELLS” (priority 2020, published 2022).

The experiment has as its system bovine viral diarrhea virus (BVDV). The experiment in a line: Hypericin-Luciferase inactivation of BVDV spiked into human red blood cell concentrate, TCID50 titration (CPE). Format: cell-based. The note with it: for Unwashed Titer / Unwashed VRF / Washed Titer / Combined VRF / Washed VRF: no luciferase system; for Unwashed Titer: RT 2 h dark; for Unwashed VRF / Washed VRF: vs RBC control; for Combined VRF: washed sample vs unwashed RBC control. The method, then: Ten different combinations of Dulbecco's modified eagle medium without calcium and magnesium (DMEM (—Ca++, —Mg++)), RBCC, virus, hypericin, luciferin, ATP and luciferase were prepared to all contain equivalent titers of BVDV calculated to be 6.48 log 10TCID50/mL based on the titer of the original virus stock. The concentrations of hypericin tested were 0, 40 and 200 μg/mL. Luciferase was tested at 0, 0.8 and 4.0 μM. Luciferin and ATP were present at 80 and 800 μM respectively when luciferase was present and absent in the absence of luciferase.
The components were mixed and incubated at room temperature (RT) for 2 hours in the dark followed by titration of unwashed and washed samples as previously described. Washing rows of wells with dilutions 1 and 2 was performed 3 days post-infection. Final cytopathic effects (CPEs) were read 10 days post-infection.
Eleven different combinations of DMEM (—Ca++, —Mg++), RBCC, virus, hypericin, luciferin, adenosine triphosphate (ATP) and luciferase were prepared to all contain equivalent titers of BVDV calculated to be 6.48 log 10TCID50/mL (logs) based on the titer of the original virus stock. The concentrations of hypericin tested were 10, 20 and 40 μg/mL. Luciferase was tested at 0.16, 0.32 and 0.8 μM. Luciferin and ATP were present at 80 and 800 μM, respectively.
The components were mixed and incubated at RT for 2 hours in the dark followed by titration of unwashed and washed samples as previously described. Washing of rows of wells with dilutions 1 and 2 was performed […] post-infection. Final CPE were read 10 days post-infection.
Ten different combinations of DMEM (—Ca++, —Mg++), RBCC, virus, hypericin, luciferin, adenosine triphosphate (ATP) and luciferase were prepared to all contain equivalent titers of BVDV calculated to be 6.48 log10 TCID50/mL (logs) based on the titer of the original virus stock. The concentrations of hypericin tested were 40, 80 and 120 μg/mL. Luciferase was tested at 0.16, 0.32 and 0.8 μM. Luciferin and ATP were present at 80 and 800 μM, respectively.
The compounds were mixed and incubated at RT for 2 hours in the dark followed by titration of unwashed and washed samples as previously described. Washing rows of wells with dilutions 1 and 2 was performed 2 days post-infection. Final CPEs were read 10 days post-infection.

Where [1] appears, read: Ex 1 HH-LN: hypericin 200 μg/mL.
The mark [2] stands for this setting: Ex 1 HH-LN: hypericin 200 μg/mL, washed.
Where [3] appears, read: Ex 1 HL-LN: hypericin 40 μg/mL, washed.

As for `Cc1cc(O)c2c(=O)c3c(O)cc(O)c4c5c(O)cc(O)c6c(=O)c7c(O)cc(C)c8c1c2c(c34)c(c78)c65` [Hypericin, hypericin], under setting [1], the “Unwashed Titer” value is listed as 3.10 log10TCID50/mL, the “Unwashed VRF” value is 3.25 log TCID50 and the “Combined VRF” value is 3.87 log TCID50. Under setting [2], the “Washed Titer” value was found to be 2.48 log10TCID50/mL and the “Washed VRF” value was found to be 1.50 log TCID50. Also, under “Ex 1 HL-LN: hypericin 40 μg/mL”, the “Unwashed Titer” value is given as 3.48 log10TCID50/mL, the “Unwashed VRF” value is given as 2.87 log TCID50 and the “Combined VRF” value is above 4.01 log TCID50. Moreover, under setting [3], the “Washed Titer” value is reported as below 2.34 log10TCID50/mL and the “Washed VRF” value is above 1.64 log TCID50. The “VRFs, unwashed samples” value (Example 1, all hypericin treated unwashed samples, low (40 μg/mL) and high (200 μg/mL) doses) is around 3 logs. For the same molecule, for the setting “Example 3, hypericin 40 μg/mL, all levels of luciferase, washed”, the “combined VRFs” value is above 3.51 logs. In addition, the “VRF, washed samples” value (Example 3, hypericin dose of 40 μg/mL, all levels of luciferase, washed, complete inactivation/elimination) was above 1.14 logs. For the setting “summary of Examples 1-3, with different doses of luciferase”, the “optimal dose of hypericin for BVDV” value stood at 40 µg/mL.
